Values joined by “and” are separate entries in the source; they are usually repeats but may differ in a detail not shown here. Equal values may be shown once. “Also recorded” adds a separate entry of the source.
Tests used:
HEK293 cells = test: Intracellular Ca2+ measurement in non-transfected HEK293 cells; format: cell-based, human; conditions: for effect on intracellular Ca2+: non-transfected HEK293 cells
Description: (§1) For fluorometric measurements of intracellular Ca^2+ levels with the FlexStationII instrument (Molecular Devices), RAW264.7 and H1819 cells were seeded into 96-well plates (3.0 × 10^4 cells/well) 24 h prior to assay. Ca^2+ measurements with transiently transfected HEK293 cells were performed 48 h after transfection. Cells were loaded with 200 µl Calcium 5 reagent (Explorer Kit, Molecular Devices, USA) for 60 min at 37 °C, and the assay was performed as described. Agonists and inhibitors were solved in DMSO (100x) and diluted […] in 96-well compound plates containing HBSS. 50 µl of compound solution were added to the assay plate resulting in final concentration of 1% DMSO. Fold-response was calculated by RFUmax − RFUmin (ligand)/RFUmax − RFUmin (vehicle). EC50 values were calculated by using GraphPad Prism6 software (GraphPad, USA).

P2Y6 [1] = target: T1, P2Y6 (Homo sapiens, UniProt Q15077); test: Agonist-induced receptor internalization, cell surface ELISA; format: cell-based; parameters: expressed in transfected cells; host or cells: HEK293; conditions: HEK293 transiently transfected with hP2RY6, time-dependent, Fig. 5e
T1 sequence (Q15077 whole entry): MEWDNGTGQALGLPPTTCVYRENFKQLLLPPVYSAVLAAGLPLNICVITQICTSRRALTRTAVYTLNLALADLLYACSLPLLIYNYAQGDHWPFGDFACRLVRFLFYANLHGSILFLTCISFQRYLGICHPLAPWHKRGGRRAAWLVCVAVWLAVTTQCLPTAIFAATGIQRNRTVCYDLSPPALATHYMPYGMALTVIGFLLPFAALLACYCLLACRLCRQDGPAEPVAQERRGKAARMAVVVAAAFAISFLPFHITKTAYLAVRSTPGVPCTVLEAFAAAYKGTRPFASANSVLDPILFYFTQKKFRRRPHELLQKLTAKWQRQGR
Description: To estimate cell surface expression of heterologously expressed receptors carrying an N-terminal HA tag, an indirect cellular ELISA was used[57]. To determine the endogenous cell surface expression of P2Y6, the same ELISA procedure was performed with minor modifications. Briefly, after 4% paraformaldehyde fixation and blocking with 10% FBS, cells were incubated with the primary anti-P2Y6 antibody (sc-15215; Santa Cruz Biotechnology, USA) in 1:1,000 dilution for 1 h. After washing with PBS, cells were incubated with peroxidase-conjugated secondary antibody anti-goat IgG (sc-2020, Santa Cruz Biotechnology, USA) in 1:5,000 dilutions.

P2Y6 F252A = target: T2, P2Y6 F252A (Homo sapiens, UniProt Q15077, F252A); test: IP1 accumulation assay, mutant P2Y6 F252A; format: cell-based; conditions: for IP1 formation at mutant receptor: Fig. 6d
T2 construct: expressed in transfected cells; host or cells: HEK293
T2 sequence (Q15077 whole entry F252A): as the sequence (Q15077 whole entry) above, with F252A counted along it
Excerpt: (§2) cDNA from H1819 cells was used to amplify and clone the P2RY6 and CNR2 coding sequences. They were double-tagged with an N-terminal HA epitope and a C-terminal FLAG epitope and, for transient transfection, introduced into the mammalian expression vector pcDps[56]. All mutant constructs were generated by a PCR-based site-directed mutagenesis and fragment replacement strategy. For stable transfection, P2RY6 was sub-cloned into the pIRES-eGFP vector (CLONTECH Laboratories, USA). All constructs were verified by sequencing.
(§3) To measure intracellular IP3 the HitHunter® Inositol (1,4,5) Triphosphate Assay (DiscoveRx, USA) was used according to manufacturer′s protocol. HEK293 cells stably transfected with hP2RY6 were seeded in a 384-well Black microtiter plate (15,000 cells/well) (Greiner Bio One, Germany) and incubated with indicated concentrations of UDP and PGE2-G for 20 seconds. Reaction was stopped by adding 5 µl 0.2 N perchloric acid and measurement of IP3 was performed with the Fusion AlphaScreen multilabel reader (PerkinElmer Life Sciences) according to manufacturer′s protocol. To measure IP1, HEK293 cells expressing wildtype and mutant P2Y6 were seeded into 384-well plates (5,000 cells/well) 24 h prior assay. After aspiration of the medium, cells were incubated with indicated concentrations of agonists/antagonist for 1 h. IP1 measurements using the IP-one HTFR® assay kit (Cisbio assays, USA) were performed according to manufacturer′s protocol. The assays were performed with a final concentration of 1% DMSO.

RAW264.7 cells = test: Intracellular Ca2+ measurement in RAW264.7 cells; format: cell-based, mouse
Description: as §1

P2Y6 [2] = target: T1, P2Y6; test: IP1 accumulation assay in HEK293 cells transfected with wildtype P2RY6; format: cell-based; parameters: expressed in transfected cells; host or cells: HEK293
Description: as §3

H1819 cells = test: Intracellular Ca2+ measurement in H1819 cells; format: cell-based, human
Description: as §1

P2Y6 Y262 to alanine = target: T3, P2Y6 Y262 to alanine (Homo sapiens, UniProt Q15077, Y262A); test: IP1 accumulation assay, mutant P2Y6 Y262A; format: cell-based; conditions: Fig. 6d
T3 construct: expressed in transfected cells; host or cells: HEK293
T3 sequence (Q15077 whole entry Y262A): as the sequence (Q15077 whole entry) above, with Y262A counted along it
Excerpt: as §2
as §3, with “IP1 measurements using the IP-one HTFR® assay kit (Cisbio assays, USA) were performed according to manufacturer′s protocol. The assays were performed with a final concentration of 1% DMSO.” left out

P2Y6 Y75A = target: T4, P2Y6 Y75A (Homo sapiens, UniProt Q15077, Y75A); test: IP1 accumulation assay, mutant P2Y6 Y75A; format: cell-based; conditions: for IP1 formation at mutant receptor: Fig. 6d
T4 construct: expressed in transfected cells; host or cells: HEK293
T4 sequence (Q15077 whole entry Y75A): as the sequence (Q15077 whole entry) above, with Y75A counted along it
Excerpt: as §2, §3

P2Y6 [3] = target: T1, P2Y6; test: Functional readouts at P2Y6, summary statements; format: cell-based; conditions: for EC50: summary value
P2Y6 [4] = target: T1, P2Y6; test: Intracellular Ca2+ measurement in HEK293 cells transfected with P2RY6; format: cell-based; parameters: expressed in transfected cells; host or cells: HEK293; conditions: for effect on cytosolic Ca2+ levels: HEK293 transiently transfected with P2RY6, concentration-dependent
Description: RAW264.7 cells were grown in DMEM supplemented with 10% FBS, A7r5 (rat […]) cells in DMEM with 10% FBS, and A431 (human squamous carcinoma) cells in RPMI supplemented with 10% FBS. All cell lines were grown at 37 °C in a humidified 5% CO2 incubator. For functional assays, receptor constructs were heterologously expressed in human embryonic kidney (HEK293) cells upon transient or stable transfection. Cells were grown in DMEM/F12 supplemented with 10% FBS, 100 units/ml penicillin, and 100 µg/ml streptomycin. For the cAMP-inhibition assay, ERK1/2 phosphorylation assay, and Ca^2+ mobilization assay, cells were split into 96-well plates (2.0 × 10^4 cells/well) and transfected with 250 ng vector construct using MACSfectin™ (Miltenyi Biotec, Germany) according to manufacturer’s protocol. Empty vector (mock) served as the negative control. For siRNA experiments, cells were seeded in 6-well plates (4.0 × 10^5 and 6.0 × 10^5 cells/well for RAW264.7 and H1819, respectively). RAW264.7 and H1819 cells were transfected with 150 pMol of mP2RY6 siRNA and hP2RY6 siRNA (Santa Cruz Biotechnology, USA), respectively, using Viromer® Blue (Lipocalyx, Germany). As a negative control, control siRNA-A (Santa Cruz Biotechnology, USA) was used. FITC-labelled siRNA served as a transfection control.
To generate a cell line stably expressing P2Y6, HEK293 cells were seeded in 6-well plates (7.5 × 10^5 cells/well) and transfected with 3 µg vector using MACSfectin™ as transfection regent according to the manufacturer’s protocol. The pIRES-eGFP vector served as negative control. Stably transfected HEK293 cells were cultured in the presence of geneticin (500 µg/ml) for selection.
as §1

[5] = Fig. 1d, read-out: EC50, intracellular Ca2+ release
[6] = HEK293 transiently transfected with P2RY6, Fig. 2b, read-out: EC50, intracellular Ca2+

Compound | effect on intracellular Ca2+ (HEK293 cells) | agonist-induced internalization of P2Y6 (cell surface expression) (P2Y6 [1]) | IP1 formation at mutant receptor (P2Y6 F252A) | IP1 formation at mutant receptor (P2Y6 Y262 to alanine) | IP1 formation at mutant receptor (P2Y6 Y75A) | EC50 (P2Y6 [3]) [nM] | EC50 (P2Y6 [4]; [6]) | effect on cytosolic Ca2+ levels (P2Y6 [4]) | further results
O=c1ccn([C@@H]2O[C@H](COP(=O)(O)OP(=O)(O)O)[C@@H](O)[C@H]2O)c(=O)[nH]1 [UDP] | no effect | cell surface expression levels of P2Y6 were reduced; also recorded: induced a time-dependent internalization | efficacy remained unchanged | significantly reduced activity | efficacy remained unchanged | ~50 | 78.3 ± 6.7 nM | increased the cytosolic Ca^2+ levels | EC50 (P2Y6 F252A; Fig. 6e): 12.7 ± 2.1 nM; EC50 (RAW264.7 cells; [5]): 38.4 ± 1.9 nM; EC50 (P2Y6 [2]; HEK293 stably transfected with P2RY6, Fig. 5): 77.3 ± 3.4 nM; EC50 (P2Y6 [2]; agonist alone, HEK293 transfected with P2RY6, Fig. 6a): 18.9 ± 2.3 nM; EC50 (H1819 cells; [5]): 25.9 ± 2.8 nM; EC50 (P2Y6 Y75A; Fig. 6e): 15.4 ± 0.9 nM; EC50 (P2Y6 [4]; HEK293 stably transfected with P2RY6, Fig. 5, read-out: EC50, Ca2+ mobilization assay): 57.1 ± 2.5 nM
Prostaglandin E2 glyceryl ester [PGE2-G] | no effect | cell surface expression levels of P2Y6 were reduced; also recorded: induced a time-dependent internalization | loss of PGE2-G-induced IP1 formation | fully activated | loss of PGE2-G-induced IP1 formation | ~0.001 | ~0.001 nM and 0.0012 nM | increased the cytosolic Ca^2+ levels | Maximum RFU for PGE2-G (HEK293 cells; HEK293 cells, control (1% DMSO) 2,106 ± 1,193): 2,193 ± 252 RFU; Maximum RFU for PGE2-G (RAW264.7 cells; control (1% DMSO) 1,560 ± 479): 3,649 ± 678 RFU; ratio of EC50 values UDP / PGE2-G (P2Y6 [2]; IP1 accumulation, Fig. 6a): ~ 63,000; Maximum RFU for PGE2-G (H1819 cells; control (1% DMSO) 5,247 ± 2,016): 13,143 ± 2,157 RFU; Emax values (P2Y6 [3]; most functional assays, Figs 3a–c and 6a): slightly lower compared to UDP; ratio of EC50 values UDP / PGE2-G (P2Y6 [4]; Ca2+ measurements in transfected HEK cells, Fig. 2b): ~ 65,000

Source: paper PMC5443783, “Prostaglandin E2 glyceryl ester is an endogenous agonist of the nucleotide receptor P2Y6” (Scientific Reports, 2017)
